Source: patent US9868748B2, “Thiazolopyrrolidine inhibitors of ROR- γ” (Vitae Pharmaceuticals, Inc., priority 2013, dated 2018)
Like-named read-outs stand apart in the source and are kept apart here.

Columns and labels:
[1] = target: full-length RORγt in Jurkat cells (Homo sapiens (Human), UniProt P51449); experiment: RORγt 5xRORE Assay in Jurkat Cells (Assay 2); assay type: cell-based; conditions: Nanoluc luciferase reporter, 16-18 hrs
Experimental: [formula] RORγt 5xRORE Assay in Jurkat Cells (Assay 2)
Compounds of the present invention were tested for RORγ inverse agonist activity in a cell-based, transcriptional activity assay. Secreted Nanoluc® luciferase was used as a reporter for transcriptional activity of the full-length RORγt in Jurkat cells (ATCC, Cat. # TIB-152). A reporter plasmid was constructed by inserting 5 repeats of the ROR Response Element (RORE) […] (SEQ ID NO:1) into a commercially available promoterless plasmid pNL1.3[secNluc] (Promega, Cat. # N1021) using KpnI and HindIII restriction sites. The expression plasmid for RORγt was purchased (Geneocopoeia, Cat. # EX-T6988-M02). Jurkat cells (30 million cells) were transfected with 11 μg of EX-T6988-MO2 and 26 μg of the reporter plasmid in OptiMEM® media using Lipofectamine® LTX and Plus™ reagents (Life Technologies, Cat. #15338-100). After 5-6 h of incubation at 37° C./5% CO2, the cells were collected, resuspended in phenol-red free RPMI media containing 10% (v/v) delipidated FBS (Hyclone, Cat. # SH30855.03) and dispensed into 96-well clear bottom tissue culture plates (CoStar, Cat. #3603), at 80,000 cells per well. Tested compounds were added to the cells in the same media (final concentration of DMSO was 0.1% (v/v)), and the plates were incubated at 37° C./5% CO2 for 16-18 hrs. Luciferase activity in the conditioned supernatants was determined with NanoGlo® assay reagents (Promega, Cat. # N1130).

[2] = target: recombinant RORγ Ligand Binding Domain (LBD) protein (Homo sapiens (Human), UniProt P51449); experiment: Radio-Ligand RORγ Binding Assay (Assay 1); conditions: competition with 25-hydroxy [26,27-3H]-cholesterol, SPA, read-out: RORγ Binding Ki Range*
Chain of recombinant RORγ Ligand Binding Domain (LBD) protein (P51449 269-508): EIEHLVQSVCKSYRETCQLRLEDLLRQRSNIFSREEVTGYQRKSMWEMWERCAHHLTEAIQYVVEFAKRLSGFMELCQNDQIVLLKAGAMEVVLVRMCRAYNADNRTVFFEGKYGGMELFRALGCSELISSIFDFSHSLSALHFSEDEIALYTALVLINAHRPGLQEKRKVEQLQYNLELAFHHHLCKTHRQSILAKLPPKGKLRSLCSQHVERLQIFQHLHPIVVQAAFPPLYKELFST
How it was run: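 Scintillation proximity competition binding of 8.6 nM stock 25-hydroxy[26,27-3H]cholesterol to 24 nM stock 6×His-GST-tagged human RORγ LBD, in 50 mM HEPES pH 7.4 with NaCl, MgCl2, glycerol, CHAPS, β-octylglucopyranoside and DTT, room temperature. Inhibition referenced to DMSO and 10 μM T0901317; IC50 by four-parameter fit, converted to Ki using radioligand concentration and KD.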

[3] = Table 8, read-out: RORγt5X IC50 Range*
[4] = Table 9, read-out: RORγt5X IC50 Range*

Chain of full-length RORγt in Jurkat cells (P51449 other isoform, or with tags, fused parts or gaps): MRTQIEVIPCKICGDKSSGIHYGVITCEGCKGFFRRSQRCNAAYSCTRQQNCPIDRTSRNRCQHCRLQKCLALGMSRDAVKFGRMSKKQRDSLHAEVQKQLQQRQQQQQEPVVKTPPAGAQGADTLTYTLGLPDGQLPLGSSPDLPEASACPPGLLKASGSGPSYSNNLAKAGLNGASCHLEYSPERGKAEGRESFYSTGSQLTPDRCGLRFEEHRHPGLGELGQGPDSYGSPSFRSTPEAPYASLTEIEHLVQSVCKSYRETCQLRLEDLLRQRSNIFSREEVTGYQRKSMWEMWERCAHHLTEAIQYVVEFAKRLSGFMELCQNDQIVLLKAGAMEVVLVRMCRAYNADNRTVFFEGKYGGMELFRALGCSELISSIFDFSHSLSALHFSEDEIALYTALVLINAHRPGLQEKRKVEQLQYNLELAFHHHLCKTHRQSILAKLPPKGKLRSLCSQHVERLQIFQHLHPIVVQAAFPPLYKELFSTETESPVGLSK

| SMILES | IC50 [1, 3] [µM] | Ki ([2]; Table 8) [µM] | IC50 [1, 4] [µM] | Ki ([2]; Table 9) [µM] |
| --- | --- | --- | --- | --- |
| CCOC(=O)c1cnc(N2Cc3sc(NC(=O)Cc4ccc(S(=O)(=O)CC)cc4)nc3[C@@H]2C(C)C)nc1C(F)(F)F |  |  | > 1 | < 0.1 |
| CC(C)[C@H]1c2nc(NC(=O)Cc3ccc(S(C)(=O)=O)cc3)sc2CN1[C@H](C)c1cnc(Cl)cc1F |  |  | 0.1 to 1 | < 0.1 |
| CC[C@H]1c2nc(NC(=O)Cc3ccc(S(C)(=O)=O)cc3)sc2CN1Cc1ccc2nn[nH]c2c1 |  |  | 0.1 to 1 | < 0.1 |
| CCS(=O)(=O)c1ccc(CC(=O)Nc2nc3c(s2)CN(c2nc(C)cc(C(F)(F)F)n2)[C@@H]3C(C)C)cc1 |  |  | > 1 | < 0.1 |
| CC(C)[C@H]1c2nc(NC(=O)Cc3ccc(S(C)(=O)=O)cc3)sc2CN1[C@H](C)c1ccc(Cl)cn1 (single isomer, unassigned) |  |  | 0.1 to 1 | < 0.1 |
| CC(C)[C@H]1c2nc(NC(=O)Cc3ccc(F)c(F)c3)sc2CN1Cc1ccc(C(F)(F)F)cc1 |  |  | 0.1 to 1 | 0.1 to 1 |
| CC(C)[C@@H]1c2nc(NC(=O)Cc3ccc(S(C)(=O)=O)cc3)sc2CN1Cc1ccc(OC(F)F)cc1 |  |  | 0.1 to 1 | 0.1 to 1 |
| CC(C)[C@H]1c2nc(C(=O)NCc3ccc(S(C)(=O)=O)cc3)sc2CN1Cc1ccc(Cl)cn1 [I-K1, (S)-5-((5-chloropyridin-2-yl)methyl)-4-isopropyl-N-(4-(methylsulfonyl)benzyl)-5,6-dihydro-4H-pyrrolo[3,4-d]thiazole-2-carboxamide] | 0.1 to 1 | < 0.1 |  |  |
| CCS(=O)(=O)c1ccc(CC(=O)Nc2nc3c(s2)CN(c2cnc(C(F)(F)F)cn2)[C@H]3C(C)C)cc1 |  |  | > 1 | < 0.1 |
| CCS(=O)(=O)c1ccc(CC(=O)Nc2nc3c(s2)CN(C[C@@H]2CC[C@@H](C(F)(F)F)OC2)[C@H]3C(C)C)cc1 [I-A26] | < 0.1 | < 0.1 |  |  |
| CC[C@H]1c2nc(NC(=O)Cc3ccc(F)cc3)sc2CN1Cc1ccc(Cl)cc1 |  |  | 0.1 to 1 | < 0.1 |
| CC(C)Oc1ccc(CC(=O)Nc2nc3c(s2)CN(Cc2ccc(Cl)cc2)[C@H]3C(C)C)cc1 |  |  | > 1 | 0.1 to 1 |
| CCS(=O)(=O)c1ccc(CC(=O)Nc2nc3c(s2)CN(c2ncc(C(F)(F)F)cn2)[C@H]3C(C)C)cc1 |  |  | > 1 | < 0.1 |
| CCS(=O)(=O)c1ccc(CC(=O)Nc2nc3c(s2)CN([C@@H](C)c2ccc(C(F)(F)F)cc2)[C@H]3C(C)C)cc1 [I-A35] | < 0.1 | < 0.1 |  |  |
| CCS(=O)(=O)c1ccc(CC(=O)Nc2nc3c(s2)CN(Cc2ccc(F)cc2)C3Cc2cccc(Br)c2)cc1 (stereo not drawn) [I-F1, N-(4-(3-bromobenzyl)-5-(4-fluorobenzyl)-5,6-dihydro-4H-pyrrolo[3,4-d]thiazol-2-yl)-2-(4-(ethylsulfonyl)phenyl)acetamide] | > 1 | < 0.1 |  |  |
| CCS(=O)(=O)c1ccc(CNC(=O)c2nc3c(s2)CN(Cc2ccc(-c4nnn(C)n4)cc2)[C@H]3C(C)C)cc1 [I-J3] | < 0.1 | < 0.1 |  |  |
| CCS(=O)(=O)c1ccc(CC(=O)Nc2nc3c(s2)CN(C[C@H]2CCCCO2)[C@H]3C(C)C)cc1 (relative stereo) |  |  | > 1 | < 0.1 |
| CCS(=O)(=O)c1ccc(CC(=O)Nc2nc3c(s2)CN(C2CCC(C(F)(F)F)CC2)[C@H]3C(C)C)cc1 (stereo partly drawn) |  |  | 0.1 to 1 | < 0.1 |
| CC(C)[C@H]1c2nc(NC(=O)Cc3ccc(S(=O)(=O)NC4CC4)cc3)sc2CN1Cc1ccc(Cl)cc1 [I-G1, (S)—N-(5-(4-chlorobenzyl)-4-isopropyl-5,6-dihydro-4H-pyrrolo[3,4-d]thiazol-2-yl)-2-(4-(N-cyclopropylsulfamoyl)phenyl)acetamide] | < 0.1 | < 0.1 |  |  |
| CCS(=O)(=O)c1ccc(CC(=O)Nc2nc3c(s2)CN(C[C@H]2CC[C@@H](C(F)(F)F)O2)[C@H]3C(C)C)nc1 (single isomer, unassigned) |  |  | > 1 | < 0.1 |
| CC[C@@H]1c2nc(NC(=O)Cc3ccc(S(=O)(=O)CC)cc3)sc2CN1Cc1ccc(Cl)cc1 |  |  | > 1 | < 0.1 |
| CCS(=O)(=O)c1ccc(CC(=O)Nc2nc3c(s2)CN(C[C@H]2CC[C@H](OC(F)F)CC2)[C@H]3C(C)C)cc1 [I-A28] | < 0.1 | < 0.1 |  |  |

Next, values leading:

| IC50 [1, 3] [µM] | Ki ([2]; Table 8) [µM] | IC50 [1, 4] [µM] | Ki ([2]; Table 9) [µM] | SMILES |
| --- | --- | --- | --- | --- |
| < 0.1 | < 0.1 |  |  | CCS(=O)(=O)c1ccc(CC(=O)Nc2nc3c(s2)CN([C@@H](C)c2ccc(Br)cc2F)[C@H]3C(C)C)cc1 [I-A25] |
|  |  | > 1 | < 0.1 | CCS(=O)(=O)c1ccc(CC(=O)Nc2nc3c(s2)CN(Cc2cccc(Br)c2)[C@@H]3C(C)C)cc1 |
| < 0.1 | < 0.1 |  |  | CCS(=O)(=O)c1ccc(CC(=O)Nc2nc3c(s2)CN(Cc2ccc(C#N)cc2F)[C@H]3C(C)C)cc1 [I-A13] |
| < 0.1 | < 0.1 |  |  | CC(C)[C@H]1c2nc(NC(=O)Cc3ccc(S(C)(=O)=O)cc3)sc2CN1[C@H](C)c1ccc(C#N)cc1 [I-B14] |
|  |  | < 0.1 | < 0.1 | CCS(=O)(=O)c1ccc(CC(=O)Nc2nc3c(s2)CN(Cc2ccc(C(F)(F)F)nn2)[C@H]3C(C)C)cc1 |
| < 0.1 | < 0.1 |  |  | CC(C)[C@H]1c2nc(NC(=O)Cc3ccc(S(C)(=O)=O)cc3)sc2CN1Cc1ccc(C#N)cc1Cl [I-B16] |
| < 0.1 | < 0.1 |  |  | CCS(=O)(=O)c1ccc(CC(=O)Nc2nc3c(s2)CN(Cc2ccc(OC(F)(F)F)cc2)[C@H]3C(C)C)cc1 [I-A16] |
|  |  | < 0.1 | < 0.1 | CCS(=O)(=O)c1ccc(CC(=O)Nc2nc3c(s2)CN(C[C@H]2CC[C@H](C#N)CC2)[C@H]3C(C)C)cc1 |
|  |  | 0.1 to 1 | < 0.1 | CCS(=O)(=O)c1ccc(CC(=O)Nc2nc3c(s2)CN(Cc2ccc(C(F)(F)F)c(Cl)c2)[C@@H]3C(C)C)cc1 |
|  |  | > 1 | < 0.1 | CC(C)[C@H]1c2nc(NC(=O)Cc3ccc(S(C)(=O)=O)cc3)sc2CN1Cc1ccc(F)cc1 |
|  |  | > 1 | < 0.1 | CCS(=O)(=O)c1ccc(CC(=O)Nc2nc3c(s2)CN(C[C@H]2C[C@H](C#N)C2)[C@H]3C(C)C)cc1 (relative stereo) |
| < 0.1 | < 0.1 |  |  | CCS(=O)(=O)c1ccc(CC(=O)Nc2nc3c(s2)CN(Cc2ccc(C4CC4)cc2)[C@H]3C(C)C)cc1 [I-A59] |
| < 0.1 | < 0.1 |  |  | CCS(=O)(=O)c1ccc(CC(=O)Nc2nc3c(s2)CN(C(C)c2c(F)cc(Cl)cc2F)[C@H]3C(C)C)cc1 (stereo partly drawn) [I-A32] |
|  |  | > 1 | 0.1 to 1 | CCS(=O)(=O)c1ccc(CC(=O)Nc2nc3c(s2)CN(Cc2cccc(S(C)(=O)=O)c2)[C@@H]3C(C)C)cc1 |
|  |  | < 0.1 | < 0.1 | CCS(=O)(=O)c1ccc(CC(=O)Nc2nc3c(s2)CN([C@@H](C)c2ccc(C#N)cn2)[C@H]3C(C)C)cc1 (single isomer, unassigned) |
|  |  | < 0.1 | < 0.1 | CCS(=O)(=O)c1ccc(CC(=O)Nc2nc3c(s2)CN(Cc2ccc(Cl)cc2)[C@H]3C(C)C)c(C#N)c1 |
|  |  | > 1 | < 0.1 | CCS(=O)(=O)c1ccc(CC(=O)Nc2nc3c(s2)CN(Cc2ccc(F)cc2F)[C@H]3C(C)C)cc1 |
|  |  | < 0.1 | < 0.1 | CCS(=O)(=O)c1ccc(CC(=O)Nc2nc3c(s2)CN(Cc2ccc(C#N)cn2)[C@@]3(C)C(C)C)cc1 [drawing 270] |
|  |  | 0.1 to 1 | < 0.1 | CCS(=O)(=O)c1cnc(CC(=O)Nc2nc3c(s2)CN(Cc2ccc(Cl)cc2)[C@H]3C(C)C)nc1 |
|  |  | > 1 | < 0.1 | CCS(=O)(=O)c1ccc(CC(=O)Nc2nc3c(s2)CN(Cc2ccc(N)nc2)[C@H]3C(C)C)cc1 |
